Data as given in the supplement of paper PMC10307832.

Legend:
Assay in all cases: relative viability (nuclei count vs DMSO), 5 days (fraction); higher = more cells survive
Seliciclib + Bortezomib = compound: CC[C@H](CO)Nc1nc(NCc2ccccc2)c2ncn(C(C)C)c2n1 [Seliciclib] + CC(C)C[C@H](NC(=O)[C@H](Cc1ccccc1)NC(=O)c1cnccn1)B(O)O [Bortezomib] (partner 0.002 µM)
Outline: (§1)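 A single step with final 0.05% Triton X-100, 1% formaldehyde and 1 ug/ml Hoechst fixed the cells and stained nuclei 5 days after treatment. Lung cancer cell lines in 1536-well plates had been treated by pin tool the day after seeding with one drug alone or a fixed anchor-drug dose plus five library-drug doses (not always all listed) in √10 steps, and nuclei were counted on 4× images. Relative viability is the ratio of nuclei in treated wells to nuclei in vehicle wells, taken as the median of duplicate plates.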

Seliciclib + Luminespib = compound: CC[C@H](CO)Nc1nc(NCc2ccccc2)c2ncn(C(C)C)c2n1 [Seliciclib] + CCNC(=O)c1noc(-c2cc(C(C)C)c(O)cc2O)c1-c1ccc(CN2CCOCC2)cc1 [Luminespib] (partner 0.01 µM)
Outline: as §1

Seliciclib + Palbociclib = compound: CC[C@H](CO)Nc1nc(NCc2ccccc2)c2ncn(C(C)C)c2n1 [Seliciclib] + CC(=O)c1c(C)c2cnc(Nc3ccc(N4CCNCC4)cn3)nc2n(C2CCCC2)c1=O [Palbociclib] (partner 0.5 µM)
Outline: as §1

Seliciclib + Dasatinib = compound: CC[C@H](CO)Nc1nc(NCc2ccccc2)c2ncn(C(C)C)c2n1 [Seliciclib] + Cc1nc(Nc2ncc(C(=O)Nc3c(C)cccc3Cl)s2)cc(N2CCN(CCO)CC2)n1 [Dasatinib] (partner 0.075 µM)
Outline: as §1

| Cell Line | relative viability (Seliciclib + Bortezomib; first compound 0.08 µM) | relative viability (Seliciclib + Bortezomib; first compound 0.253 µM) | relative viability (Seliciclib + Bortezomib; first compound 0.8 µM) | relative viability (Seliciclib + Bortezomib; first compound 2.53 µM) | relative viability (Seliciclib + Bortezomib; first compound 8 µM) | relative viability (Seliciclib + Luminespib; first compound 0.08 µM) | relative viability (Seliciclib + Luminespib; first compound 0.253 µM) | relative viability (Seliciclib + Luminespib; first compound 0.8 µM) | relative viability (Seliciclib + Luminespib; first compound 2.53 µM) | relative viability (Seliciclib + Luminespib; first compound 8 µM) | relative viability (Seliciclib + Palbociclib; first compound 0.08 µM) | relative viability (Seliciclib + Palbociclib; first compound 0.253 µM) | relative viability (Seliciclib + Palbociclib; first compound 0.8 µM) | relative viability (Seliciclib + Palbociclib; first compound 2.53 µM) | relative viability (Seliciclib + Palbociclib; first compound 8 µM) | relative viability (Seliciclib + Dasatinib; first compound 0.08 µM) | relative viability (Seliciclib + Dasatinib; first compound 0.253 µM) | relative viability (Seliciclib + Dasatinib; first compound 0.8 µM) | relative viability (Seliciclib + Dasatinib; first compound 2.53 µM) | relative viability (Seliciclib + Dasatinib; first compound 8 µM) |
| --- | --- | --- | --- | --- | --- | --- | --- | --- | --- | --- | --- | --- | --- | --- | --- | --- | --- | --- | --- | --- |
| COR-L 105 | 0.876 | 0.961 | 0.676 | 0.535 | 0.774 | 1.07 | 0.428 | 0.817 | 0.859 | 0.532 | 0.432 | 0.392 | 0.276 | 0.365 | 0.397 | 0.377 | 0.405 | 0.324 | 0.311 | 0.37 |
| LK-2 | – | – | – | – | – | 0.186 | 0.236 | 0.164 | 0.174 | 0.253 | 0.466 | 0.423 | 0.509 | 0.447 | 0.285 | 0.305 | 0.414 | 0.436 | 0.226 | 0.217 |
| NCI-H727 | 0.759 | 0.774 | 0.578 | 0.585 | 0.716 | 0.338 | 0.447 | 0.372 | 0.321 | 0.271 | 0.619 | 0.601 | 0.555 | 0.577 | 0.575 | 0.481 | 0.504 | 0.342 | 0.307 | 0.336 |
| RERF-LC-KJ | 1.04 | 1.02 | 1.09 | 1.14 | 1.07 | 1.29 | 1.07 | 1.21 | 1.28 | 0.859 | 1 | 0.925 | 1.03 | 1.07 | 0.908 | 0.908 | 0.841 | 0.902 | 0.627 | 0.617 |
| NCI-H2023 | 0.998 | 1.1 | 1.1 | 0.747 | 0.84 | 0.681 | 0.832 | 0.703 | 0.569 | 0.421 | 0.366 | 0.324 | 0.295 | 0.183 | 0.159 | 0.534 | 0.407 | 0.606 | 0.434 | 0.477 |
| NCI-H322M | 1.21 | 1.4 | 1.18 | 1.23 | 1.09 | 0.855 | 0.883 | 0.794 | 0.786 | 0.809 | 0.472 | 0.538 | 0.467 | 0.428 | 0.431 | 0.257 | 0.267 | 0.263 | 0.232 | 0.219 |
| NCI-H1666 | 0.799 | 0.739 | 0.809 | 0.66 | 0.568 | 1.01 | 1.08 | 1.04 | 0.968 | 0.778 | 0.635 | 0.633 | 0.666 | 0.603 | 0.5 | 0.732 | 0.888 | 0.875 | 0.605 | 0.551 |
| SW 900 | – | – | – | – | – | 0.148 | 0.147 | 0.14 | 0.17 | 0.168 | 0.583 | 0.489 | 0.513 | 0.411 | 0.306 | 0.541 | 0.593 | 0.661 | 0.397 | 0.559 |
| NCI-H2087 | 0.73 | 0.792 | 0.719 | 0.752 | 0.661 | 0.192 | 0.188 | 0.158 | 0.193 | 0.231 | 0.28 | 0.288 | 0.241 | 0.16 | 0.151 | 0.874 | 1.07 | 0.898 | 0.704 | 0.754 |
| LU99A | 1.16 | 1.05 | 1.01 | 0.94 | 0.803 | 0.267 | 0.196 | 0.209 | 0.191 | 0.268 | 0.378 | 0.332 | 0.357 | 0.318 | 0.275 | 0.611 | 0.521 | 0.588 | 0.262 | 0.507 |
| HCC-366 | 0.987 | 1.06 | 1.01 | 1.08 | 0.908 | – | – | – | – | – | 0.35 | 0.272 | 0.345 | 0.328 | 0.166 | 0.565 | 0.376 | 0.57 | 0.381 | 0.473 |
| EKVX | 1.03 | 1.07 | 0.985 | 0.854 | 0.861 | – | 1.03 | 0.794 | 0.821 | 0.642 | 0.365 | 0.305 | 0.311 | 0.16 | 0.204 | 0.53 | 0.55 | 0.573 | 0.47 | 0.493 |
| NCI-H522 | – | – | – | – | – | 1.05 | 0.954 | 1.15 | 1.12 | 0.938 | 0.913 | 1.01 | 0.972 | 0.909 | 0.87 | 1.06 | 0.827 | 1.05 | 0.82 | 0.834 |
| NCI-H1755 | 0.928 | 0.961 | 0.896 | 0.973 | 0.913 | 0.573 | 0.565 | 0.444 | 0.406 | 0.407 | 0.417 | 0.477 | 0.342 | 0.433 | 0.412 | 0.423 | 0.404 | 0.429 | 0.26 | 0.404 |
| NCI-H647 | 0.789 | 0.849 | 0.941 | 1.05 | 0.891 | 0.111 | 0.206 | 0.127 | 0.128 | 0.163 | 0.321 | 0.188 | 0.395 | 0.296 | 0.216 | 0.225 | – | 0.209 | 0.166 | 0.189 |
| LC-2-ad | 1.02 | 0.514 | 0.986 | 0.958 | 0.816 | 0.895 | 1.02 | 0.988 | 0.985 | 0.834 | 0.49 | 0.524 | 0.494 | 0.466 | 0.371 | 0.638 | 0.802 | 0.63 | 0.326 | 0.459 |
| HCC-827 | 1.08 | 1.03 | 1.05 | 1.04 | 0.881 | 0.519 | 0.589 | 0.55 | 0.829 | 0.588 | 0.486 | 0.493 | 0.456 | 0.39 | 0.231 | 0.359 | 0.298 | 0.258 | 0.324 | 0.236 |
